# Test results published in patent US8431588B2, “Cyclopropyl polymerase inhibitors” (Janssen Products, LP, priority 2008, dated 2013).
# Where two headings read alike, the source gives them in different places.
# Columns and labels:
# [1] = tested on: HCV type 1b replicon in Huh-7 luc/neo (Huh-Luc) cells; assay: HCV replicon assay (Huh-Luc, luciferase readout); type: cell-based; settings: Hepatitis C virus, Huh-7, 72 h, read-out: EC50 (replicon)
# From the text: The compounds of formula I were examined for activity in the inhibition of HCV RNA replication in a cellular assay aimed at identifying compounds that inhibit a HCV functional cellular replicating cell line, also known as HCV replicons. The cellular assay was based on a bicistronic expression construct, as described by Lohmann et al. (1999), Science vol. 285 pp. 110-113 with modifications described by Krieger et al. (2001), Journal of Virology 75: 4614-4624, in a multi-target screening strategy.
# The assay utilized the stably transfected cell line Huh-7 luc/neo (hereafter referred to as Huh-Luc). This cell line harbors an RNA encoding a bicistronic expression construct comprising the wild type NS3-NS5B regions of HCV type 1b translated from an Internal Ribosome Entry Site (IRES) from encephalomyocarditis virus (EMCV), preceded by a reporter portion (FfL-luciferase), and a selectable marker portion (neo^R, neomycine phosphotransferase). The construct is bordered by 5′ and 3′ NTRs (non-translated regions) from HCV type 1b. Continued culture of the replicon cells in the presence of G418 (neo^R) is dependent on the replication of the HCV RNA. The stably transfected replicon cells that express HCV RNA, which replicates autonomously and to high levels, encoding inter alia luciferase, were used for screening the antiviral compounds.
# The replicon cells were plated in 384 well plates in the presence of the test and control compounds which were added in various concentrations. Following an incubation of three days, HCV replication was measured by assaying luciferase activity (using standard luciferase assay substrates and reagents and a Perkin Elmer ViewLux™ ultraHTS microplate imager). Replicon cells in the control cultures have high luciferase expression in the absence of any inhibitor. The inhibitory activity of the compound on luciferase activity was monitored on the Huh-Luc cells, enabling a dose-response curve for each test compound. EC50 values were then calculated, which value represents the amount of the compound required to decrease the level of detected luciferase activity by 50%, or more specifically, the ability of the genetically linked HCV replicon RNA to replicate.
# [2] = Cellular toxicity in the Huh7-CMV-Luc replicon assay; type: cell-based; settings: human; Huh7-CMV-Luc cells, three days incubation, Luc activity
# Procedure: Cellular toxicity was determined in the Huh7-CMV-Luc replicon assay. Replicon cells (2500 cells/well), stably transformed with a luciferase reporter gene under control of the cytomegalovirus (CMV) constitutive promotor, were cultured in the presence or absence of test compound concentrations. After three days of incubation at 37° C. in a humidified 5% CO2 atmosphere, cell proliferation was quantified by measuring the Luc activity, and expressed as CC50 values (cytotoxicity, 50% inhibitory concentration of cell growth). Tests were performed in 384-well plates.
# [3] = tested on: wild type human immunodeficiency virus (HIV) strain IIIB; assay: microbe, parasite or virus in culture; type: cell-based, HIV-1; settings: read-out: EC50 (IIIB)
# Procedure: Compounds of the invention were tested for their potency against wild type human immunodeficiency virus (HIV). Antiviral activity was evaluated using a cellular assay performed according to the following procedure. The human T-cell line MT4 was engineered with Green Fluorescent Protein (GFP) and a HIV-specific promoter, HIV-1 long terminal repeat (LTR). This cell line, designated MT4 LTR-EGFP, can be used for the in vitro evaluation of anti-HIV activity of investigational compounds. In HIV-1 infected cells, the Tat protein is produced, which upregulates the LTR promotor and eventually leads to stimulation of the GFP reporter production, allowing to measure ongoing HIV-infection fluorometrically. Effective concentration values such as 50% effective concentration (EC50) can be determined and are usually expressed in μM. An EC50 value is defined as the concentration of test compound that reduces the fluorescence of HIV-infected cells by 50%. Monitoring of HIV-1 infection was done using a scanning microscope. Image analysis allows very sensitive detection of viral infection. Measurements were done before cell necrosis, which usually takes place about five days after infection, in particular measurements were performed three days after infection. The column IIIB in the table list the EC50 values against the wild type strain IIIB.
# [4] = Huh-Luc replicon cells, three days incubation, luciferase activity
# [5] = Human immunodeficiency virus 1, 72 h, wild type strain IIIB, MT4 LTR-EGFP cells, three days after infection
SMILES,"EC50 [1, 4]",CC50 at 3 days [2],"EC50 [3, 5]",EC50 [1],"EC50 ([3]; Human immunodeficiency virus 1, IIIB, 72 h)"
"Nc1ccn([C@@H]2O[C@H](CO)[C@@H](O)C23CC3)c(=O)n1 [Compound 1, 4-Amino-1-(7-hydroxy-6-hydroxymethyl-5-oxa-spiro[2.4]hept-4-yl)-1H-pyrimidin-2-one]",8.4 µM,> 98 µM,> 98 µM,,
"C[C@H](NP(=O)(OC[C@H]1O[C@@H](n2ccc(N)nc2=O)C2(CC2)[C@@H]1O)Oc1ccc(Cl)cc1)C(=O)OCc1ccccc1 (stereo partly drawn) [Compound 2b, (2S)-benzyl 2-((((4R,6R,7S)-4-(4-amino-2-oxopyrimidin-1(2H)-yl)-7-hydroxy-5-oxaspiro[2.4]heptan-6-yl)methoxy)(4-chlorophenoxy)phosphorylamino)propanoate]",26.3 µM,> 98 µM,> 98 µM,,
"CC(C)C(=O)O[C@@H]1[C@@H](CO)O[C@@H](n2ccc(N)nc2=O)C12CC2 [Compound 5, (4R,6R,7S)-4-(4-amino-2-oxopyrimidin-1(2H)-yl)-6-(hydroxymethyl)-5-oxaspiro[2.4]heptan-7-yl isobutyrate]",42.5 µM,> 98 µM,> 98 µM,,
"C[C@H](NP(=O)(OC[C@H]1O[C@@H](n2ccc(N)nc2=O)C2(CC2)[C@@H]1O)Oc1ccccc1)C(=O)OCc1ccccc1 (stereo partly drawn) [Compound 2a, (2S)-benzyl 2-((((4R,6R,7S)-4-(4-amino-2-oxopyrimidin-1(2H)-yl)-7-hydroxy-5-oxaspiro[2.4]heptan-6-yl)methoxy)((phenoxy)phosphoryl)amino)propanoate]",15.3 µM,> 98 µM,> 98 µM,,
"CC(C)C(=O)OC[C@H]1O[C@@H](n2ccc(N)nc2=O)C2(CC2)[C@@H]1OC(=O)C(C)C [Compound 3, (4R,6R,7S)-4-(4-amino-2-oxopyrimidin-1(2H)-yl)-6-(isobutyryl-oxymethyl)-5-oxaspiro[2.4]heptan-7-yl isobutyrate]",27.2 µM,> 98 µM,> 98 µM,,
"COC(=O)[C@H](C)NP(=O)(OC[C@H]1O[C@@H](n2ccc(N)nc2=O)C2(CC2)[C@@H]1O)Oc1ccccc1 (stereo partly drawn) [Compound 2d, (2S)-methyl 2-((((4R,6R,7S)-4-(4-amino-2-oxopyrimidin-1(2H)-yl)-7-hydroxy-5-oxaspiro[2.4]heptan-6-yl)methoxy)(phenoxy)phosphorylamino)propanoate]",63.1 µM,> 98 µM,> 98 µM,,
"CCOC(=O)[C@H](Cc1ccccc1)NP(=O)(OC[C@H]1O[C@@H](n2ccc(N)nc2=O)C2(CC2)[C@@H]1O)Oc1ccccc1 (stereo partly drawn) [Compound 2c, (2S)-ethyl 2-((((4R,6R,7S)-4-(4-amino-2-oxopyrimidin-1(2H)-yl)-7-hydroxy-5-oxaspiro[2.4]heptan-6-yl)methoxy)(phenoxy)phosphorylamino)-3-phenylpropanoate]",,> 98 µM,> 98 µM,≥ 98 µM,
"CC(C)C(=O)OC[C@H]1O[C@@H](n2ccc(N)nc2=O)C2(CC2)[C@@H]1O [Compound 4, ((4R,6R,7S)-4-(4-amino-2-oxopyrimidin-1(2H)-yl)-7-hydroxy-5-oxaspiro[2.4]heptan-6-yl)methyl isobutyrate]",9.2 µM,> 98 µM,,,> 98 µM
